Results taken from PMC4999073 (PLoS ONE, 2016).
Where a SMILES comes first, the peptide text is derived from it.

How the values were obtained:
[1] = molecular target: Human Cat K (Homo sapiens, UniProt P43235); settings: 12.5 μM defensin, 125 nM Cat K (S:E 100), 0.1 M sodium acetate pH 5.5, 2 mM DTT, 0.01% Brij35, 4 h, 30°C; RP-HPLC, 220 nm
[2] = test system: Staphylococcus aureus ATCC 29740; settings: radial diffusion assay; defensin alone or reaction mixture after 4 h at 30°C with cathepsin (S:E molar ratio 100), 0.1 M sodium acetate pH 5.5, 2 mM DTT, 0.01% Brij35; mean ± SEM, n = 3; NI: no inhibition detected
Source text: (§1) The reaction mixture without defensin added was used as negative control and the defensin alone was used as positive control. […] The strain Salmonella enterica serovar Typhimurium LT2 was kindly provided by Dr Benoît Doublet (INRA, UMR1282 ISP, Nouzilly, France). The strain Streptococcus salivarius was a clinical strain isolated from blood culture, kindly provided by Dr Christine Delorme (INRA, UMR1319 MICALIS, Jouy en Josas, France).
(§2) A Mann-Whitney non-parametric U test was used to compare the minimal inhibitory concentration of each defensin before and after incubation with cathepsins.

[3] = test system: Escherichia coli ATCC 25922; settings: radial diffusion assay, n = 3
Source text: as §1, §2

[4] = molecular target: Human Cat D (Homo sapiens, UniProt P07339); settings: 12.5 μM defensin, 125 nM Cat D (S:E 100), 0.1 M sodium citrate pH 3.5, 200 mM NaCl, 4 h, 30°C; RP-HPLC, 220 nm
Sequence of Human Cat D (P07339 65-412): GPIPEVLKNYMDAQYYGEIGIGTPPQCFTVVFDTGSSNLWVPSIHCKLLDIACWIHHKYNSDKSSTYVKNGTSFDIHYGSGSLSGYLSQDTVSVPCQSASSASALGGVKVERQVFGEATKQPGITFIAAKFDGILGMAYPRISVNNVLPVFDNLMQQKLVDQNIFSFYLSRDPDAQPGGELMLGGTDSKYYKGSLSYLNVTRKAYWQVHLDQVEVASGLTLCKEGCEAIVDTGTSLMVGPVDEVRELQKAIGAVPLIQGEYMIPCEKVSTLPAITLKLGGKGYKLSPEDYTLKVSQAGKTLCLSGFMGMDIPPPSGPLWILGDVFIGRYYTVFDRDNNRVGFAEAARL
Experimental: (§4) Chromatograms were analyzed by running the ChromoQuest Chromatography Workstation (Thermo Fisher Scientific, Les Ulis, France).

[5] = molecular target: Human Cat S (Homo sapiens, UniProt P25774); settings: 12.5 μM defensin, 125 nM Cat S (S:E 100), 0.1 M sodium acetate pH 5.5, 2 mM DTT, 0.01% Brij35, 4 h, 30°C; RP-HPLC, 220 nm
Sequence of Human Cat S (P25774 115-331): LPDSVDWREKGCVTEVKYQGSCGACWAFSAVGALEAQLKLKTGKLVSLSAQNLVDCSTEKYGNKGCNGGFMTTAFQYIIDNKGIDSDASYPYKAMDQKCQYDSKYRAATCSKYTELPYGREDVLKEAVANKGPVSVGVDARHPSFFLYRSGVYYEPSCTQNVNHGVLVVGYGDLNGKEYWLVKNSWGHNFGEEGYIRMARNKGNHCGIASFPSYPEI

[6] = molecular target: Human neutrophil elastase (HNE) (Homo sapiens, UniProt P08246); settings: 12.5 μM defensin, 125 nM HNE (S:E 100), 0.05 M HEPES pH 7.4, NP40 0.05%, 150 mM NaCl, 4 h, 30°C; RP-HPLC, 220 nm
Sequence of Human neutrophil elastase (HNE) (Homo sapiens, UniProt P08246) (P08246 30-267): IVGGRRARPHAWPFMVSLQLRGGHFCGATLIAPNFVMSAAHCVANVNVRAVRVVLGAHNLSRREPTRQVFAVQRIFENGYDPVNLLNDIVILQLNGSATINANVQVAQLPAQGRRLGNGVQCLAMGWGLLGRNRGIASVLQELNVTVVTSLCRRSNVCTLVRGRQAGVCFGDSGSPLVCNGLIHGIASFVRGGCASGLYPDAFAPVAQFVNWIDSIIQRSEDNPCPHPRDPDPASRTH
Experimental: as §4

[7] = test system: chymotrypsin; settings: 12.5 μM defensin, 125 nM chymotrypsin (S:E 100), 0.1 M Tris/HCl pH 7.8, 20 mM CaCl2, 4 h, 30°C; RP-HPLC, 220 nm
Experimental: as §4

[8] = molecular target: Human Cat B (Homo sapiens, UniProt P07858); settings: 12.5 μM defensin, 125 nM Cat B (S:E 100), 0.1 M sodium acetate pH 5.5, 2 mM DTT, 0.01% Brij35, 4 h, 30°C; RP-HPLC, 220 nm
[9] = molecular target: Human Cat L (Homo sapiens, UniProt P07711); settings: 12.5 μM defensin, 125 nM Cat L (S:E 100), 0.1 M sodium acetate pH 5.5, 2 mM DTT, 0.01% Brij35, 4 h, 30°C; RP-HPLC, 220 nm
Sequence of Human Cat L (P07711 114-333): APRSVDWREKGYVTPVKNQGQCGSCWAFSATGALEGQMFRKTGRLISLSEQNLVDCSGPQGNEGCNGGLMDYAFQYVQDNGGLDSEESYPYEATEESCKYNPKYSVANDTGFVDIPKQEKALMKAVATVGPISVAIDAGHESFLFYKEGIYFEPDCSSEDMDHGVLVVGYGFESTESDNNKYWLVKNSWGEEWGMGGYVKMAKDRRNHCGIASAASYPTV

[10] = molecular target: Human Cat H (Homo sapiens, UniProt P09668); settings: 12.5 μM defensin, 125 nM Cat H (S:E 100), 0.1 M sodium acetate pH 5.5, 2 mM DTT, 0.01% Brij35, 4 h, 30°C; RP-HPLC, 220 nm
Sequence of Human Cat H (P09668 98-335): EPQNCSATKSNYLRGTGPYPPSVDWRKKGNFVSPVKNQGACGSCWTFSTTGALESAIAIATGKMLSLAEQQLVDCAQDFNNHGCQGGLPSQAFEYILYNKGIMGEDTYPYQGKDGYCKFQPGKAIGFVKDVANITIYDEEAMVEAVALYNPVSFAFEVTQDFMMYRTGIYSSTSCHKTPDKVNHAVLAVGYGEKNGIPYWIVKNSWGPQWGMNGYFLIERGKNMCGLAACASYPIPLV

[11] = test system: trypsin; settings: 12.5 μM defensin, 125 nM trypsin (S:E 100), 0.1 M Tris/HCl pH 8.0, 50 mM CaCl2, 100 mM NaCl, 4 h, 30°C; RP-HPLC, 220 nm
Experimental: as §4

[12] = test system: chymotrypsin; assay: 125 nM chymotrypsin in 0.1 M Tris/HCl buffer, pH 7.8, 20 mM CaCl2; settings: 30°C, up to 4 h
[13] = test system: Cat S; assay: 125 nM Cat S in 0.1 M sodium acetate buffer, pH 5.5 containing 2 mM DTT and 0.01% Brij35; settings: human, 30°C, up to 4 h
[14] = test system: Cat H; assay: 125 nM Cat H in 0.1 M sodium acetate buffer, pH 5.5 containing 2 mM DTT and 0.01% Brij35; settings: human, 30°C, up to 4 h
[15] = test system: Cat D; assay: 125 nM Cat D in 0.1 M sodium citrate buffer, pH 3.5, 200 mM NaCl; settings: human, 30°C, up to 4 h
[16] = test system: Cat K; assay: 125 nM Cat K in 0.1 M sodium acetate buffer, pH 5.5 containing 2 mM DTT and 0.01% Brij35; settings: human, 30°C, up to 4 h
[17] = test system: trypsin; assay: 125 nM trypsin in 0.1 M Tris/HCl buffer, pH 8.0, 50 mM CaCl2, 100 mM NaCl; settings: 30°C, up to 4 h
[18] = test system: Cat L; assay: 125 nM Cat L in 0.1 M sodium acetate buffer, pH 5.5 containing 2 mM DTT and 0.01% Brij35; settings: human, 30°C, up to 4 h
[19] = test system: Human neutrophil elastase (HNE); assay: 125 nM HNE in 0.05 M HEPES buffer, pH 7.4, NP40 0.05% 150 mM NaCl; settings: 30°C, up to 4 h
[20] = test system: Cat B; assay: 125 nM Cat B in 0.1 M sodium acetate buffer, pH 5.5 containing 2 mM DTT and 0.01% Brij35; settings: human, 30°C, up to 4 h
[21] = test system: Salmonella enterica serovar Typhimurium LT2 ATCC 700720; assay: Radial diffusion antibacterial assay (MIC); type: cell-based; settings: Table 3, mean +/- SEM, n = 3
Experimental: (§3) The antibacterial activity of purified AvBD2 and AvBD7 and of each enzyme-AvBD reaction mixture was measured by radial diffusion assay as described previously, allowing the determination of the minimal inhibitory concentration (MIC) against Staphylococcus aureus ATCC 29740 and against Escherichia coli ATCC 25922 as representative Gram-positive and Gram-negative strains, respectively. The reaction mixture without defensin added was used as negative control and the defensin alone was used as positive control. For AvBD7 and its major degradation product, MIC was determined towards three Gram-negative and three Gram-positive bacterial strains, respectively, including Pseudomonas aeruginosa ATCC 25010, Escherichia coli ATCC 25922, Salmonella enterica serovar Typhimurium LT2 ATCC 700720, Listeria monocytogenes strain EGD, Staphylococcus aureus ATCC 29740, and Streptococcus salivarius JIM 8780. The strain Salmonella enterica serovar Typhimurium LT2 was kindly provided by Dr Benoît Doublet (INRA, UMR1282 ISP, Nouzilly, France). The strain Streptococcus salivarius was a clinical strain isolated from blood culture, kindly provided by Dr Christine Delorme (INRA, UMR1319 MICALIS, Jouy en Josas, France).

[22] = test system: Listeria monocytogenes strain EGD; assay: Radial diffusion antibacterial assay (MIC); type: cell-based; settings: Table 3, mean +/- SEM, n = 3
Experimental: as §3

[23] = test system: Streptococcus salivarius JIM 8780; assay: Radial diffusion antibacterial assay (MIC); type: cell-based; settings: Table 3, mean +/- SEM, n = 3
Experimental: as §3

[24] = test system: Pseudomonas aeruginosa ATCC 25010; assay: Radial diffusion antibacterial assay (MIC); type: cell-based; settings: Table 3, mean +/- SEM, n = 3
Experimental: as §3

Sequence of Human Cat K (P43235 115-329): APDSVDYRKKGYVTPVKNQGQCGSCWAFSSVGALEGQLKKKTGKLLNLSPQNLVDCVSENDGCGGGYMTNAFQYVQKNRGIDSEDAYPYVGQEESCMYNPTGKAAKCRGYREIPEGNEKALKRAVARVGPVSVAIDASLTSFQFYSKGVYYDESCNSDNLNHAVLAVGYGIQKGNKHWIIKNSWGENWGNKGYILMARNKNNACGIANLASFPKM

CC[C@H](C)[C@@H]1NC(=O)[C@H](CC(C)C)NC(=O)[C@H](Cc2c[nH]cn2)NC(=O)[C@H](CO)NC(=O)[C@@H]2CCCN2C(=O)[C@@H]2CSSC[C@@H](C(=O)N[C@@H](CCCCN)C(=O)N[C@@H](Cc3c[nH]c4ccccc34)C(=O)N3CCC[C@H]3C(=O)N[C@@H](Cc3c[nH]c4ccccc34)C(=O)N[C@@H](CC(N)=O)C(=O)N[C@@H](C)C(=O)O)NC(=O)[C@@H]3CSSC[C@H](NC(=O)[C@H](Cc4ccccc4)NC(=O)[C@@H](N)CC(C)C)C(=O)N[C@@H](CCCCN)C(=O)NCC(=O)NCC(=O)N[C@@H](CO)C(=O)N[C@@H](CSSC[C@H](NC(=O)[C@H](CO)NC(=O)CNC(=O)[C@H](C(C)C)NC(=O)[C@H](CCCCN)NC1=O)C(=O)N[C@@H](Cc1ccccc1)C(=O)NCC(=O)N[C@@H](Cc1ccccc1)C(=O)N[C@@H](CCCNC(=N)N)C(=O)N[C@@H](CO)C(=O)N3)C(=O)N[C@@H](Cc1c[nH]cn1)C(=O)N[C@@H](Cc1ccccc1)C(=O)NCC(=O)NCC(=O)N2 [AvBD2] (HELM PEPTIDE1{L.F.C.K.G.G.S.C.H.F.G.G.C.P.S.H.L.I.K.V.G.S.C.F.G.F.R.S.C.C.K.W.P.W.N.A}$PEPTIDE1,PEPTIDE1,3:R3-29:R3|PEPTIDE1,PEPTIDE1,8:R3-23:R3|PEPTIDE1,PEPTIDE1,13:R3-30:R3$$$V2.0) was tested, and the “Hydrolysis by Cat K” value [1] was “totally digested”, the “MIC (μM) S. aureus” value [2] was 1 ± 0 µM and the “MIC (μM) E. Coli” value ([3]; defensin alone or reaction mixture after 4 h at 30°C with cathepsin (S:E molar ratio 100), 0.1 M sodium acetate pH 5.5, 2 mM DTT, 0.01% Brij35, mean ± SEM, NI: no inhibition detected) was 3 ± 2 µM. For the same molecule, the “Hydrolysis by Cat D” value [4] was “did not cleave”, the “Hydrolysis by Cat S” value [5] was “partially degraded” and the “Hydrolysis by neutrophil elastase” value [6] was “did not cleave”. The Hydrolysis by chymotrypsin [7] was “did not cleave”, the “Hydrolysis by Cat B” value [8] was “partially degraded” and the “Hydrolysis by Cat L” value [9] was “partially degraded”. For the same molecule, the “Hydrolysis by Cat H” value [10] was “resistant to hydrolysis” and the Hydrolysis by trypsin [11] was “did not cleave”.
“QPFIPRPIDTCRLRNGICFPGICRRPYYWIGTCNNGIGSCCARGWRS” was tested, and the not cleaved [12] was “did not cleave (4 hours)”, the not cleaved [13] was “fully resistant to hydrolysis (4 h)” and the not cleaved [14] was “resistant to hydrolysis (4 h)”. The not cleaved [15] was “did not cleave (4 hours)”, the cleaved bond [16] was “Phe3-Ile4” and the not cleaved [17] was “did not cleave (4 hours)”. The not cleaved [18] was “fully resistant to hydrolysis (4 h)”, the not cleaved [19] was “did not cleave (4 hours)” and the not cleaved [20] was “fully resistant to hydrolysis (4 h)”.
For CC[C@H](C)[C@H](N)C(=O)N1CCC[C@H]1C(=O)N[C@@H](CCCNC(=N)N)C(=O)N1CCC[C@H]1C(=O)N[C@H](C(=O)N[C@@H](CC(=O)O)C(=O)N[C@H](C(=O)N[C@H]1CSSC[C@@H]2NC(=O)[C@H](CO)NC(=O)CNC(=O)[C@H]([C@@H](C)CC)NC(=O)CNC(=O)[C@H](CC(N)=O)NC(=O)[C@H](CC(N)=O)NC(=O)[C@@H]3CSSC[C@H](NC(=O)[C@H]([C@@H](C)CC)NC(=O)CNC(=O)[C@H](CC(N)=O)NC(=O)[C@H](CCCNC(=N)N)NC(=O)[C@H](CC(C)C)NC(=O)[C@H](CCCNC(=N)N)NC1=O)C(=O)N[C@@H](Cc1ccccc1)C(=O)N1CCC[C@H]1C(=O)NCC(=O)N[C@@H]([C@@H](C)CC)C(=O)N[C@@H](CSSC[C@@H](C(=O)N[C@@H](C)C(=O)N[C@@H](CCCNC(=N)N)C(=O)NCC(=O)N[C@@H](Cc1c[nH]c4ccccc14)C(=O)N[C@@H](CCCNC(=N)N)C(=O)N[C@@H](CO)C(=O)O)NC2=O)C(=O)N[C@@H](CCCNC(=N)N)C(=O)N[C@@H](CCCNC(=N)N)C(=O)N1CCC[C@H]1C(=O)N[C@@H](Cc1ccc(O)cc1)C(=O)N[C@@H](Cc1ccc(O)cc1)C(=O)N[C@@H](Cc1c[nH]c2ccccc12)C(=O)N[C@@H]([C@@H](C)CC)C(=O)NCC(=O)N[C@@H]([C@@H](C)O)C(=O)N3)[C@@H](C)O)[C@@H](C)CC [Ile4-AvBD7], the “MIC (μM) Escherichia coli” value ([3]; Table 3, mean +/- SEM) was 0.5 (± 0.1) μM, the “MIC (μM) Salmonella Typhimurium” value [21] was 1.4 (± 0.9) μM and the “MIC (μM) Listeria monocytogenes” value [22] was 0.2 (± 0.1) μM. The “MIC (μM) Streptococcus salivarius” value [23] was 1.0 (± 0.5) μM and the “MIC (μM) Pseudomonas aeruginosa” value [24] was 0.2 (± 0.1) μM.
In the case of LFCKGGSCHFGGCPSHLIKVGSCFGFRSCCKWPWNA, the not cleaved [12] was “did not cleave (4 hours)”, the not cleaved [14] was “resistant to hydrolysis (4 h)” and the not cleaved [15] was “did not cleave (4 hours)”. The not cleaved [17] was “did not cleave (4 hours)” and the not cleaved [19] was “did not cleave (4 hours)”.
